The structures appear in SMILES notation.

This assay deals with human umbilical vein endothelial cells (HUVEC). The assay is described as follows: HUVEC proliferation assay (VEGF-stimulated, MTT).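 Note: relative to VEGF-stimulated control minus starvation-medium baseline.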 The assay is classed as cell-based. As to conditions: Library II, Y=S, crude reaction mixtures. The procedure: HUVEC Proliferation Assay
This assay determines the ability of a test compound to inhibit the growth factor-stimulated proliferation of human umbilical vein endothelial cells (“HUVEC”). HUVEC cells (passage 3-4, Clonetics, Corp.) were thawed into EGM2 culture medium (Clonetics Corp) in T75 flasks. Fresh EGM2 medium was added to the flasks 24 hours later. Four or five days later, cells were exposed to another culture medium (F12K medium supplemented with 10% fetal bovine serum (FBS), 60 μg/mL endothelial cell growth supplement (ECGS), and 0.1 mg/mL heparin). Exponentially-growing HUVEC cells were used in experiments thereafter. Ten to twelve thousand HUVEC cells were plated in 96-well dishes in 100 μl of rich, culture medium (described above). The cells were allowed to attach for 24 hours in this medium. The medium was then removed by aspiration and 105 μl of starvation media (F12K+1% FBS) was added to each well. After 24 hours, 15 μl of test agent dissolved in 1% DMSO in starvation medium or this vehicle alone was added into each treatment well; the final DMSO concentration was 0.1%. One hour later, 30 μl of VEGF (30 ng/mL) in starvation media was added to all wells except those containing untreated controls; the final VEGF concentration was 6 ng/mL. Cellular proliferation was quantified 72 hours later by MTT dye reduction, at which time cells were exposed for 4 hours MTT (Promega Corp.).
For screening compound library plates, one or two concentrations (one well per concentration) were employed, and the % inhibition was calculated by the following formula:
% inhibition=(control−test)÷(control−starvation)
% inhibition=(control-treated)/(control-starvation)×100

The mark [1] stands for this setting: 0.5 mM (column head; text: nominal 0.5 nM).
Where [2] appears, read: 2 mM (column head; text: nominal 2 nM).

For the molecule `Nc1ccc(CCNC(=O)c2ccccc2Sc2ccc3c(/C=C/c4ccccn4)n[nH]c3c2)cc1`, the “% inhibition of the proliferation of HUVEC” value (from here on “% inhibition”) reads like this: under setting [1], 32%; under setting [2], 31%.

Take `O=C(NCCCN1CCOCC1)c1ccccc1Sc1ccc2c(/C=C/c3ccccn3)n[nH]c2c1`: the “% inhibition” value reads like this: under setting [1], 5%; under setting [2], 14%.

For the molecule `O=C(NCC1CCCO1)c1ccccc1Sc1ccc2c(/C=C/c3ccccn3)n[nH]c2c1` (centres unmarked), the “% inhibition” value amounted to 23% under setting [1] and 44% under setting [2].

On to `O=C(NCCCN1CCCC1=O)c1ccccc1Sc1ccc2c(/C=C/c3ccccn3)n[nH]c2c1`, for which the “% inhibition” value reads like this: under setting [1], 25%; under setting [2], 35%.

Turning to `CN1CCCC1CCNC(=O)c1ccccc1Sc1ccc2c(/C=C/c3ccccn3)n[nH]c2c1` (centres unmarked), the “% inhibition” value came to 30% under setting [1] and 23% under setting [2].

Take `O=C(NCCN1CCCCC1)c1ccccc1Sc1ccc2c(/C=C/c3ccccn3)n[nH]c2c1`: the “% inhibition” value turned out to be 5% under setting [1] and 19% under setting [2].

As to `CN(C)CCCCNC(=O)c1ccccc1Sc1ccc2c(/C=C/c3ccccn3)n[nH]c2c1`, the “% inhibition” value is recorded as 23% under setting [1] and 16% under setting [2].

On to `CN(C)CCCCCCNC(=O)c1ccccc1Sc1ccc2c(/C=C/c3ccccn3)n[nH]c2c1`, for which the “% inhibition” value under setting [1] amounted to 42% and the “% inhibition” value under setting [2] amounted to 22%.

`CC(CNC(=O)c1ccccc1Sc1ccc2c(/C=C/c3ccccn3)n[nH]c2c1)N(C)C` (centres unmarked): the “% inhibition” value runs as follows: under setting [1], −9%; under setting [2], 1%.

`O=C(NCCCN1CCCCCC1)c1ccccc1Sc1ccc2c(/C=C/c3ccccn3)n[nH]c2c1`: the “% inhibition” value by setting is: under setting [1], 25%; under setting [2], −5%.

As for `O=C(NCCCN1CCCCC1)c1ccccc1Sc1ccc2c(/C=C/c3ccccn3)n[nH]c2c1`, the “% inhibition” value by setting is: under setting [1], 16%; under setting [2], 7%.

With `O=C(NC1CCS(=O)(=O)C1)c1ccccc1Sc1ccc2c(/C=C/c3ccccn3)n[nH]c2c1` (centres unmarked), the “% inhibition” value reads like this: under setting [1], 27%; under setting [2], 2%.

Turning to `O=C(O)CNC(=O)CCNC(=O)c1ccccc1Sc1ccc2c(/C=C/c3ccccn3)n[nH]c2c1`, the “% inhibition” value by setting is: under setting [1], 49%; under setting [2], −9%.

On to `N#CCNC(=O)c1ccccc1Sc1ccc2c(/C=C/c3ccccn3)n[nH]c2c1`, for which the “% inhibition” value was found to be 18% under setting [1] and 40% under setting [2].

As for `O=C(CNC(=O)c1ccccc1Sc1ccc2c(/C=C/c3ccccn3)n[nH]c2c1)NO`, the “% inhibition” value was found to be 5% under setting [1] and 9% under setting [2].

With `O=C(O)CNC(=O)c1ccccc1Sc1ccc2c(/C=C/c3ccccn3)n[nH]c2c1`, the “% inhibition” value by setting is: under setting [1], 8%; under setting [2], 23%.

With `O=C(NCCS(=O)(=O)O)c1ccccc1Sc1ccc2c(/C=C/c3ccccn3)n[nH]c2c1`, the “% inhibition” value is, setting by setting: under setting [1], 16%; under setting [2], 21%.

Take `CCC(O)CNC(=O)c1ccccc1Sc1ccc2c(/C=C/c3ccccn3)n[nH]c2c1` (centres unmarked): the “% inhibition” value is reported as 13% under setting [1] and 23% under setting [2].

For `CC(C)(CO)CNC(=O)c1ccccc1Sc1ccc2c(/C=C/c3ccccn3)n[nH]c2c1`, the “% inhibition” value reads like this: under setting [1], 8%; under setting [2], 22%.

As for `CCN1CC(NC(=O)c2ccccc2Sc2ccc3c(/C=C/c4ccccn4)n[nH]c3c2)CN1CC`, the “% inhibition” value under setting [1] is recorded as 2% and the “% inhibition” value under setting [2] was −19%.

With `CCN(CCNC(=O)c1ccccc1Sc1ccc2c(/C=C/c3ccccn3)n[nH]c2c1)c1cccc(C)c1`, the “% inhibition” value reads like this: under setting [1], 17%; under setting [2], 1%.

For the molecule `N=C(N)CNC(=O)c1ccccc1Sc1ccc2c(/C=C/c3ccccn3)n[nH]c2c1`, the “% inhibition” value under setting [1] worked out at 7% and the “% inhibition” value under setting [2] was −1%.

Consider `O=C(NCCc1c[nH]cn1)c1ccccc1Sc1ccc2c(/C=C/c3ccccn3)n[nH]c2c1`, for which the “% inhibition” value reads like this: under setting [1], 23%; under setting [2], −32%.

Turning to `O=C(NCS(=O)(=O)O)c1ccccc1Sc1ccc2c(/C=C/c3ccccn3)n[nH]c2c1`, the “% inhibition” value is listed as 2% under setting [1] and −3% under setting [2].

As to `CN(CCCNC(=O)c1ccccc1Sc1ccc2c(/C=C/c3ccccn3)n[nH]c2c1)c1ccccc1`, the “% inhibition” value is given as 18% under setting [1] and 25% under setting [2].

Regarding `NS(=O)(=O)c1ccc(CNC(=O)c2ccccc2Sc2ccc3c(/C=C/c4ccccn4)n[nH]c3c2)cc1`, the “% inhibition” value is reported as 1% under setting [1] and 13% under setting [2].

For `O=C(NCCCN(CCO)CCO)c1ccccc1Sc1ccc2c(/C=C/c3ccccn3)n[nH]c2c1`, the “% inhibition” value is, setting by setting: under setting [1], 4%; under setting [2], 4%.

For the molecule `O=C(NCCc1ccncc1)c1ccccc1Sc1ccc2c(/C=C/c3ccccn3)n[nH]c2c1`, the “% inhibition” value runs as follows: under setting [1], 18%; under setting [2], 22%.

Take `O=C(NO)c1ccccc1Sc1ccc2c(/C=C/c3ccccn3)n[nH]c2c1`: the “% inhibition” value was found to be 7% under setting [1] and 25% under setting [2].

With `CNNC(=O)c1ccccc1Sc1ccc2c(/C=C/c3ccccn3)n[nH]c2c1`, the “% inhibition” value was determined as 13% under setting [1] and 31% under setting [2].

Regarding `COCCCNC(=O)c1ccccc1Sc1ccc2c(/C=C/c3ccccn3)n[nH]c2c1`, the “% inhibition” value by setting is: under setting [1], 26%; under setting [2], 31%.

As to `Cc1cc(NC(=O)c2ccccc2Sc2ccc3c(/C=C/c4ccccn4)n[nH]c3c2)on1`, the “% inhibition” value stood at 26% under setting [1] and 31% under setting [2].

With `Cc1cc(NC(=O)c2ccccc2Sc2ccc3c(/C=C/c4ccccn4)n[nH]c3c2)no1`, the “% inhibition” value by setting is: under setting [1], 28%; under setting [2], 14%.

Take `Nc1nc(NC(=O)c2ccccc2Sc2ccc3c(/C=C/c4ccccn4)n[nH]c3c2)n[nH]1`: the “% inhibition” value is on record as −6% under setting [1] and 41% under setting [2].

Turning to `O=C(NC1CCCCC1)c1ccccc1Sc1ccc2c(/C=C/c3ccccn3)n[nH]c2c1`, the “% inhibition” value is, setting by setting: under setting [1], 12%; under setting [2], 76%.

On to `O=C(Nc1nncs1)c1ccccc1Sc1ccc2c(/C=C/c3ccccn3)n[nH]c2c1`, for which the “% inhibition” value by setting is: under setting [1], 44%; under setting [2], 28%.

`CC(C)CC(C)NC(=O)c1ccccc1Sc1ccc2c(/C=C/c3ccccn3)n[nH]c2c1` (centres unmarked): the “% inhibition” value is reported as 55% under setting [1] and 50% under setting [2].

`CCCCCCNC(=O)c1ccccc1Sc1ccc2c(/C=C/c3ccccn3)n[nH]c2c1`: the “% inhibition” value reads like this: under setting [1], 21%; under setting [2], 90%.

With `O=C(Nc1nnn[nH]1)c1ccccc1Sc1ccc2c(/C=C/c3ccccn3)n[nH]c2c1`, the “% inhibition” value is 21% under setting [1] and 64% under setting [2].

As for `O=C(NCC1OCCO1)c1ccccc1Sc1ccc2c(/C=C/c3ccccn3)n[nH]c2c1`, the “% inhibition” value reads like this: under setting [1], 35%; under setting [2], 63%.

In the case of `CC(C)C(CO)NC(=O)c1ccccc1Sc1ccc2c(/C=C/c3ccccn3)n[nH]c2c1` (centres unmarked), the “% inhibition” value under setting [1] came out at 21% and the “% inhibition” value under setting [2] is on record as −5%.

Regarding `CCC(COC)NC(=O)c1ccccc1Sc1ccc2c(/C=C/c3ccccn3)n[nH]c2c1` (centres unmarked), the “% inhibition” value is reported as 1% under setting [1] and 65% under setting [2].

Consider `CCOCCCNC(=O)c1ccccc1Sc1ccc2c(/C=C/c3ccccn3)n[nH]c2c1`, for which the “% inhibition” value under setting [1] was found to be 44% and the “% inhibition” value under setting [2] was determined as 97%.

As to `CCCC(CO)NC(=O)c1ccccc1Sc1ccc2c(/C=C/c3ccccn3)n[nH]c2c1` (centres unmarked), the “% inhibition” value reads like this: under setting [1], 44%; under setting [2], 40%.

As for `COC(CNC(=O)c1ccccc1Sc1ccc2c(/C=C/c3ccccn3)n[nH]c2c1)OC`, the “% inhibition” value is 47% under setting [1] and 89% under setting [2].

For the molecule `CSCCCNC(=O)c1ccccc1Sc1ccc2c(/C=C/c3ccccn3)n[nH]c2c1`, the “% inhibition” value worked out at 44% under setting [1] and 100% under setting [2].

Source of the values: patent US6534524B1, “Indazole compounds and pharmaceutical compositions for inhibiting protein kinases, and methods for their use” (Agouron Pharmaceuticals, Inc., priority 1999, dated 2003).
